As usually defined, the GI50 is the concentration giving 50% growth inhibition. A word on the TGI: it is the concentration at which net growth stops. Low readings indicate more potent growth arrest, high ones less potent growth arrest.

In PubChem BioAssay (NCI) one finds GI50 and TGI data, which are given here for nine molecules.

Values joined by “and” are separate entries in the source; they are usually repeats but may differ in a detail not shown here. Identical values can stand only once.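 Test compounds were applied to cells in 96-well plates for 48 hours at 5 doses. GI50 marks 50% less growth. Definition used: TGI = concentration required for complete inhibition of growth.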

Among the test systems are SK-MEL-2 melanoma; 786-0 renal; SR leukemia; BT-549 breast; KM12 colon; NCI/ADR-RES ovarian; OVCAR-8 ovarian; OVCAR-4 ovarian.
What all share (assay): DTP human tumour cell line panel, 48 h

Regarding `C(=N/Nc1ncnc2nc[nH]c12)/c1ccccn1`, the GI50 in the experiment with SK-MEL-2 melanoma was 1.34 µM; in the experiment with 786-0 renal, 1.65 µM; in the experiment with SR leukemia, 0.4 µM; in the experiment with BT-549 breast, 1.86 µM; in the experiment with KM12 colon, 0.661 µM; with NCI/ADR-RES ovarian, 0.382 µM. Also, the 50% growth inhibitory concentration (GI50) in the experiment with OVCAR-8 ovarian is 0.393 µM; with OVCAR-4 ovarian, 0.3 µM. The TGI in the experiment on SK-MEL-2 melanoma was over 100 µM; in the experiment on 786-0 renal, 5.43 µM; in the experiment with SR leukemia, over 100 µM; in the experiment on BT-549 breast, over 100 µM; in the experiment with KM12 colon it was over 100 µM; in the experiment with NCI/ADR-RES ovarian, over 22.3 µM. The TGI in the experiment with OVCAR-8 ovarian and in the experiment with OVCAR-4 ovarian was over 100 µM each time.

On to `Cc1ccc(Cl)cc1Nc1nc(C(F)(F)F)ccc1C(=O)N/N=C/c1c(Cl)cccc1Cl`, for which the GI50 with SK-MEL-2 melanoma is 1.94 µM; with 786-0 renal, 0.588 µM; in the experiment with SR leukemia, 0.251 µM; with BT-549 breast it was 1.62 µM; in the experiment with KM12 colon, 0.542 µM; in the experiment on NCI/ADR-RES ovarian, 0.522 µM. For the same molecule, the GI50 with OVCAR-8 ovarian is 0.85 µM; in the experiment with OVCAR-4 ovarian, 0.289 µM. Further, the concentration for total growth inhibition (TGI) is 4.86 µM with SK-MEL-2 melanoma; 1.38 µM in the experiment on 786-0 renal; 3.88 µM in the experiment on SR leukemia; 7.09 µM in the experiment on BT-549 breast; 9.08 µM in the experiment with KM12 colon; 6.77 µM in the experiment on NCI/ADR-RES ovarian. This molecule gave a total growth inhibition concentration (TGI) with OVCAR-8 ovarian of over 50.3 µM.

Take `CC1(C)CC(=O)C2=C(C1)NC(SSC1=C(C#N)C(c3ccc(Br)cc3)C3=C(CC(C)(C)CC3=O)N1)=C(C#N)C2c1ccc(Br)cc1` (stereo not drawn): the GI50 is over 150 mg/L with SK-MEL-2 melanoma; 53.8 mg/L in the experiment on 786-0 renal; 22.8 mg/L in the experiment on SR leukemia; 28.1 mg/L in the experiment on BT-549 breast; over 150 mg/L in the experiment on KM12 colon; 28.9 mg/L with NCI/ADR-RES ovarian. Besides, the GI50 was 48.6 mg/L in the experiment with OVCAR-8 ovarian and 34.4 mg/L in the experiment with OVCAR-4 ovarian. The TGI is > 100 µM and 150 µg/mL with SK-MEL-2 melanoma; > 100 µM and 150 µg/mL in the experiment on 786-0 renal; > 100 µM and 66.2 µg/mL in the experiment on SR leukemia; > 100 µM and 52 µg/mL with BT-549 breast; > 100 µM and 150 µg/mL in the experiment with KM12 colon; > 100 µM and 64.1 µg/mL in the experiment with NCI/ADR-RES ovarian. The concentration for total growth inhibition (TGI) in the experiment with OVCAR-8 ovarian was > 100 µM and 150 µg/mL; in the experiment with OVCAR-4 ovarian it was > 100 µM and 84.8 µg/mL.

On to `Fc1ccc(-c2ncn(C3CCNCC3)c2-c2ccnc(Oc3ccccc3)n2)cc1`, for which the GI50 is over 25 µM in the experiment with SK-MEL-2 melanoma; over 22.5 µM in the experiment on 786-0 renal; 9.17 µM in the experiment with SR leukemia; 23 µM in the experiment with BT-549 breast; over 25 µM in the experiment with KM12 colon; over 25 µM in the experiment on NCI/ADR-RES ovarian. The GI50 with OVCAR-8 ovarian and with OVCAR-4 ovarian was over 25 µM in each case. The total growth inhibition concentration (TGI) with SK-MEL-2 melanoma is over 25 µM; in the experiment on 786-0 renal, over 25 µM; with SR leukemia, over 20.1 µM; in the experiment with BT-549 breast, over 25 µM; with KM12 colon it was over 25 µM; in the experiment with NCI/ADR-RES ovarian it was over 25 µM. Moreover, the TGI in the experiment on OVCAR-8 ovarian and with OVCAR-4 ovarian was over 25 µM each time.

With `Nc1ncnc2c1c(-c1cccc(OCc3ccccc3)c1)cn2C1CC(CN2CCCC2)C1` (stereo not drawn), the GI50 with SK-MEL-2 melanoma was 1.66 µM; in the experiment with 786-0 renal it was 1.72 µM; in the experiment on SR leukemia it was 2.4 µM; in the experiment with BT-549 breast it was 2.02 µM; in the experiment with KM12 colon it was 1.93 µM; with NCI/ADR-RES ovarian, 5.01 µM. Besides, the GI50 in the experiment with OVCAR-8 ovarian was 4.74 µM; in the experiment with OVCAR-4 ovarian, 1.86 µM. Moreover, the TGI with SK-MEL-2 melanoma was determined as 3.35 µM; with 786-0 renal, 3.34 µM; with SR leukemia, 11.2 µM; in the experiment with BT-549 breast, 4.99 µM; with KM12 colon, 4.26 µM; in the experiment with NCI/ADR-RES ovarian, 21.5 µM. The TGI came to 18 µM in the experiment with OVCAR-8 ovarian and 6.59 µM with OVCAR-4 ovarian.

For the molecule `CCCn1cc(C2=C(c3cn(C)c4ccccc34)C(=O)NC2=O)c2ccccc21`, the GI50 in the experiment with SK-MEL-2 melanoma was 0.702 µM; in the experiment with 786-0 renal, 1.62 µM; in the experiment with SR leukemia it was 0.352 µM; in the experiment with BT-549 breast, 1.36 µM; with KM12 colon, 1.14 µM; with NCI/ADR-RES ovarian, 1.32 µM. Moreover, the results for the GI50 in the experiment with OVCAR-8 ovarian and in the experiment on OVCAR-4 ovarian were 2.01 µM and 3.46 µM, respectively. The TGI in the experiment with SK-MEL-2 melanoma is 3.24 µM; in the experiment on 786-0 renal, over 25 µM; in the experiment with SR leukemia, 9.99 µM; in the experiment with BT-549 breast it was 5.95 µM; in the experiment with KM12 colon, 7.92 µM; with NCI/ADR-RES ovarian it was 24.5 µM. In addition, the TGI in the experiment on OVCAR-8 ovarian was over 19.6 µM; with OVCAR-4 ovarian it was 14.2 µM.

With `COc1ccc(-c2cn(-c3ccc(Cl)cc3)c(=S)[nH]2)cc1OC`, the GI50 in the experiment with SK-MEL-2 melanoma is over 100 µM; in the experiment on 786-0 renal, 6.44 µM; in the experiment on SR leukemia, 2.91 µM; with BT-549 breast it was 7.3 µM; in the experiment on KM12 colon it was 23.8 µM; with NCI/ADR-RES ovarian, 5.3 µM. The values for the GI50 in the experiment on OVCAR-8 ovarian and with OVCAR-4 ovarian were 46.7 µM and 20.8 µM, respectively. In addition, the concentration for total growth inhibition (TGI) is over 100 µM with SK-MEL-2 melanoma; 91.7 µM in the experiment with 786-0 renal; over 100 µM in the experiment with SR leukemia; over 100 µM in the experiment on BT-549 breast; over 100 µM in the experiment with KM12 colon; over 100 µM in the experiment on NCI/ADR-RES ovarian. In addition, the TGI in the experiment on OVCAR-8 ovarian and in the experiment with OVCAR-4 ovarian was over 100 µM in each case.

For `COc1ccc2nc3cccc([N+](=O)[O-])c3c(NCCN(CCO)CCO)c2c1`, the GI50 in the experiment with SK-MEL-2 melanoma is 0.0117 µM; in the experiment with 786-0 renal it was 0.0268 µM; with SR leukemia, 0.017 µM; in the experiment with BT-549 breast it was 0.0415 µM; in the experiment on KM12 colon, 0.0367 µM; with NCI/ADR-RES ovarian it was 0.689 µM. Besides, the figures for the GI50 in the experiment with OVCAR-8 ovarian and in the experiment with OVCAR-4 ovarian were 0.014 µM and 0.0222 µM, respectively. Further, the concentration for total growth inhibition (TGI) in the experiment on SK-MEL-2 melanoma worked out at 0.0224 µM; in the experiment with 786-0 renal, 0.156 µM; with SR leukemia, 0.647 µM; in the experiment on BT-549 breast, 0.14 µM; in the experiment with KM12 colon it was 0.202 µM; in the experiment on NCI/ADR-RES ovarian, 4.6 µM. Besides, the TGI in the experiment on OVCAR-8 ovarian is 0.138 µM; in the experiment on OVCAR-4 ovarian it was 0.0685 µM.

In the case of `O=C(CSc1nc2ccc([N+](=O)[O-])cc2[nH]1)Nc1cccc(Cl)c1`, the GI50 in the experiment on SK-MEL-2 melanoma is 2 µM; in the experiment with 786-0 renal, 3.02 µM; in the experiment on SR leukemia, 3.34 µM; with BT-549 breast, 2.72 µM; with KM12 colon, 3.1 µM; in the experiment with NCI/ADR-RES ovarian it was 2.41 µM. Further, the GI50 in the experiment on OVCAR-8 ovarian is 3.02 µM; in the experiment on OVCAR-4 ovarian, 2.13 µM. Also, the concentration for total growth inhibition (TGI) in the experiment with SK-MEL-2 melanoma is 5.82 µM; in the experiment with 786-0 renal, 14.1 µM; in the experiment on SR leukemia it was over 45.7 µM; in the experiment with BT-549 breast, 10.8 µM; in the experiment with KM12 colon it was 13.8 µM; with NCI/ADR-RES ovarian it was 9.13 µM. The TGI in the experiment on OVCAR-8 ovarian was over 39.1 µM; with OVCAR-4 ovarian it was 22.3 µM.
